Measured values from ChEMBL document CHEMBL3991601, “The target landscape of clinical kinase drugs” (Science, 2017).
Calls of active or inactive are those of the source.

Tests used:
[1] = molecular target: S-adenosylmethionine synthase isoform type-2 (Homo sapiens, UniProt P31153)
[2] = molecular target: T1, Serine/threonine-protein kinase 4 (Homo sapiens, UniProt Q13043)
T1 sequence (Q13043 whole entry): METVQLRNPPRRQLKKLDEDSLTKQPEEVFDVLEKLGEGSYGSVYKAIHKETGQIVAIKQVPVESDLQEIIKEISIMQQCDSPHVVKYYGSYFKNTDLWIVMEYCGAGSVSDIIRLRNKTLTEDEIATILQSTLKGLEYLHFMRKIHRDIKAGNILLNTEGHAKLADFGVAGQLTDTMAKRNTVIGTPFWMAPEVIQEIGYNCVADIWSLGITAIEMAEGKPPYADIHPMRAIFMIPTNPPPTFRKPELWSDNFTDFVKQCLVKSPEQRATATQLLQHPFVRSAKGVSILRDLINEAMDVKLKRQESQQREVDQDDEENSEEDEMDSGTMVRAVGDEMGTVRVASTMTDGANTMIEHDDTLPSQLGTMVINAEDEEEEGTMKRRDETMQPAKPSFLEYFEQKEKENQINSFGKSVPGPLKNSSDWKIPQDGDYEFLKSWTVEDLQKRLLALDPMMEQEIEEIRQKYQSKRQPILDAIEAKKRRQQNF

[3] = molecular target: Bone morphogenetic protein receptor type-1B (Homo sapiens, UniProt O00238)
[4] = molecular target: Tyrosine-protein kinase ABL2 (Homo sapiens, UniProt P42684)
[5] = molecular target: T2, RNA cytidine acetyltransferase (Homo sapiens, UniProt Q9H0A0)
T2 sequence (Q9H0A0 whole entry): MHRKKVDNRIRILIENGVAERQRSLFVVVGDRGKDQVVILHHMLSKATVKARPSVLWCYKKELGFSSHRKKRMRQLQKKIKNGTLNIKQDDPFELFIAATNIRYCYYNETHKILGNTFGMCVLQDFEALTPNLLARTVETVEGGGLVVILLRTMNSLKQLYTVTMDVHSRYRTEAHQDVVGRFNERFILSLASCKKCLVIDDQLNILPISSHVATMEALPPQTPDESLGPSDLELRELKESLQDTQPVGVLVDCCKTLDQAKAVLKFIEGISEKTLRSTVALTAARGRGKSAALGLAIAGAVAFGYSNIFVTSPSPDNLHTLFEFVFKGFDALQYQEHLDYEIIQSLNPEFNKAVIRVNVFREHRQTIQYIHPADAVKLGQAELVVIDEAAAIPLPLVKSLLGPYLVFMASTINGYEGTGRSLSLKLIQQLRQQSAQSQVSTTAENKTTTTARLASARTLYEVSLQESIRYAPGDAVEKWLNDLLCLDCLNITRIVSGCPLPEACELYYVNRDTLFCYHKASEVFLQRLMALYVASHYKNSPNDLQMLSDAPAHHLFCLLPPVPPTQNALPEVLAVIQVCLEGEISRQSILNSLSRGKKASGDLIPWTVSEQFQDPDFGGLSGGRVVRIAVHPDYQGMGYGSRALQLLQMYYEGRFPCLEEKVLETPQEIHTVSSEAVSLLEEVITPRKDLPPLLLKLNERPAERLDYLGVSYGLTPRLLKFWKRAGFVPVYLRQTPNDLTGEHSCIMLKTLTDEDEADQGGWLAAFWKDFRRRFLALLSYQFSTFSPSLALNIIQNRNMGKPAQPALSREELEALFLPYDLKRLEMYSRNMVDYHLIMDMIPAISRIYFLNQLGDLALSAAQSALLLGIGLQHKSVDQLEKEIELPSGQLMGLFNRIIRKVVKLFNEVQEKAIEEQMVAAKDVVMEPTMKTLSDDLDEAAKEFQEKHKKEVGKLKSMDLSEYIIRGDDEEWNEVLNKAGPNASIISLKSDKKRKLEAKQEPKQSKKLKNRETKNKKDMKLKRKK

[6] = molecular target: Dual specificity mitogen-activated protein kinase kinase 2 (Homo sapiens, UniProt P36507)
Ephrin type-A receptor 7 = Ephrin type-A receptor 7 (Homo sapiens, UniProt Q15375)
[7] = molecular target: Atypical kinase COQ8A, mitochondrial (Homo sapiens, UniProt Q8NI60)
[8] = molecular target: T3, Cysteine--tRNA ligase, cytoplasmic (Homo sapiens, UniProt P49589)
T3 sequence (P49589 whole entry): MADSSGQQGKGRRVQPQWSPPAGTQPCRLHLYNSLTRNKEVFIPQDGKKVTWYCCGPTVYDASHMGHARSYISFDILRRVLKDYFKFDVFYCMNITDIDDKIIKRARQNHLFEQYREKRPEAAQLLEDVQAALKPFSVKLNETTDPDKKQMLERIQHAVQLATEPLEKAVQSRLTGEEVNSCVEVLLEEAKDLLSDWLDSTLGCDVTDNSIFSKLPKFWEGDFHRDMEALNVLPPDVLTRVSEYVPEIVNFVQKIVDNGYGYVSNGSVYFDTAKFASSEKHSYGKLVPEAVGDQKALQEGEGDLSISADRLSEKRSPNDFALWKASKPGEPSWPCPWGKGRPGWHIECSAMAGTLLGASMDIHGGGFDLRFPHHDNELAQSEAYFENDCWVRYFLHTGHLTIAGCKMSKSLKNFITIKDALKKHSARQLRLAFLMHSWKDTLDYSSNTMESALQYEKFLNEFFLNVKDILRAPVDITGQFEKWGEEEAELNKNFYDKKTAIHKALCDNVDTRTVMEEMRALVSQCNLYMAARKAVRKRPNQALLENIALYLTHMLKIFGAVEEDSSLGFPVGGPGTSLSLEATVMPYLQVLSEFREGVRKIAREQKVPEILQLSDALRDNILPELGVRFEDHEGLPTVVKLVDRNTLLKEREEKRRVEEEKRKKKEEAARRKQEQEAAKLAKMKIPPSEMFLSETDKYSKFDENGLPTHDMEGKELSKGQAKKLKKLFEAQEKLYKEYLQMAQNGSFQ
Also: in the data inactive means no Kd found up to 30 µM.

Chain of Atypical kinase COQ8A, mitochondrial (Q8NI60 whole entry): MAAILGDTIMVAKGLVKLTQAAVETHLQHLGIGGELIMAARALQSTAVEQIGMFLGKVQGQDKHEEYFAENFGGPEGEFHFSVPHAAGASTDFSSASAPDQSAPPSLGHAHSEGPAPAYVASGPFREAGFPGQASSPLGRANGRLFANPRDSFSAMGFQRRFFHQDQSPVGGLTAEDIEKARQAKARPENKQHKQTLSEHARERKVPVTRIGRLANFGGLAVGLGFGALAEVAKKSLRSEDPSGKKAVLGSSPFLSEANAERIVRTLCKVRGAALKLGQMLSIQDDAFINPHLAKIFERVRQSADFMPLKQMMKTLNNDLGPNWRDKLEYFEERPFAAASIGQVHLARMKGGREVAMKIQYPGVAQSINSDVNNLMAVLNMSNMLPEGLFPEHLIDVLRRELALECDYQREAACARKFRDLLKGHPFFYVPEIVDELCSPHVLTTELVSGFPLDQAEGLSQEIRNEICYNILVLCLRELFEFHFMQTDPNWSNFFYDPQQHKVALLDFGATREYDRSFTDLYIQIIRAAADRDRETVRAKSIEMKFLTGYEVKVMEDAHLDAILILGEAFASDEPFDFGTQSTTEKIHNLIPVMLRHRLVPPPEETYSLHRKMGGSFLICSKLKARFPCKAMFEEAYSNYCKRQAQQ
Chain of Dual specificity mitogen-activated protein kinase kinase 2 (P36507 whole entry): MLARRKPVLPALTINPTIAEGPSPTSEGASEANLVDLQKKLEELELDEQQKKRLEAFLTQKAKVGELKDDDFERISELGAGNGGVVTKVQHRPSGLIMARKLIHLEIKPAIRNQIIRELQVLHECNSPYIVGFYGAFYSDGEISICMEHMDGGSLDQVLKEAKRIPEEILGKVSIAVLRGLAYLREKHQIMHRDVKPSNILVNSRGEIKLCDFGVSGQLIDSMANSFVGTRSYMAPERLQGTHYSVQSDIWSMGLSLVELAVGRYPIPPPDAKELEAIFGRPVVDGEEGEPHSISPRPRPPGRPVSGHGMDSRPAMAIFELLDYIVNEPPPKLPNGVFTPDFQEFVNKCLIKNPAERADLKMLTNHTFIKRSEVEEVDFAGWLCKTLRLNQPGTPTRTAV
Chain of Ephrin type-A receptor 7 (Q15375 whole entry): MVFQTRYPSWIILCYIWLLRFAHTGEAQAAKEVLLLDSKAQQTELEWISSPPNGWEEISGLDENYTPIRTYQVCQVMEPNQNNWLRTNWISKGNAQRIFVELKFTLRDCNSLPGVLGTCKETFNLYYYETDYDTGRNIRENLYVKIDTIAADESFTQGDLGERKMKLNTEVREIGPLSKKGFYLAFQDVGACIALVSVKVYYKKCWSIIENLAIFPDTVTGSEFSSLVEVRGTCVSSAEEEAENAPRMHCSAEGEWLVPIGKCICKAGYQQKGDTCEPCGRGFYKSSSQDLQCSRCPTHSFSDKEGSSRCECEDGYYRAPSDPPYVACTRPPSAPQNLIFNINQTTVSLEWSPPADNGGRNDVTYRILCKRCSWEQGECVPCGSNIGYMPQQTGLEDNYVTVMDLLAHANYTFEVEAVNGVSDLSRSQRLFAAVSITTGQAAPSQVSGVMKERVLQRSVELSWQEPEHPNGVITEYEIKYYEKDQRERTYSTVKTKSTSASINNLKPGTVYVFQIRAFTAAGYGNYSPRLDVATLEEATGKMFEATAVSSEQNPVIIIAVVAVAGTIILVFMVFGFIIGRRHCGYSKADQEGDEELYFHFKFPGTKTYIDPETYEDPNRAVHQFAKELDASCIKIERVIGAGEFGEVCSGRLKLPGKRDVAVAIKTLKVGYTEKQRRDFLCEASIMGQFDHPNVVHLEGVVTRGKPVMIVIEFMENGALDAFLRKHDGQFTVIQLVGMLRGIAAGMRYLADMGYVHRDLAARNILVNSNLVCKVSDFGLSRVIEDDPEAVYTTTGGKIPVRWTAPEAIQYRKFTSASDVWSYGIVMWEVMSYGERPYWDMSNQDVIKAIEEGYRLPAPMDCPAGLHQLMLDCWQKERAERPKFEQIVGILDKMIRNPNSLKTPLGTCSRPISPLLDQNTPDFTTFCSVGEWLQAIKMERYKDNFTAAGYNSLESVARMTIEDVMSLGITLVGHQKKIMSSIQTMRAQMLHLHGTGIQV
Chain of Tyrosine-protein kinase ABL2 (P42684 whole entry): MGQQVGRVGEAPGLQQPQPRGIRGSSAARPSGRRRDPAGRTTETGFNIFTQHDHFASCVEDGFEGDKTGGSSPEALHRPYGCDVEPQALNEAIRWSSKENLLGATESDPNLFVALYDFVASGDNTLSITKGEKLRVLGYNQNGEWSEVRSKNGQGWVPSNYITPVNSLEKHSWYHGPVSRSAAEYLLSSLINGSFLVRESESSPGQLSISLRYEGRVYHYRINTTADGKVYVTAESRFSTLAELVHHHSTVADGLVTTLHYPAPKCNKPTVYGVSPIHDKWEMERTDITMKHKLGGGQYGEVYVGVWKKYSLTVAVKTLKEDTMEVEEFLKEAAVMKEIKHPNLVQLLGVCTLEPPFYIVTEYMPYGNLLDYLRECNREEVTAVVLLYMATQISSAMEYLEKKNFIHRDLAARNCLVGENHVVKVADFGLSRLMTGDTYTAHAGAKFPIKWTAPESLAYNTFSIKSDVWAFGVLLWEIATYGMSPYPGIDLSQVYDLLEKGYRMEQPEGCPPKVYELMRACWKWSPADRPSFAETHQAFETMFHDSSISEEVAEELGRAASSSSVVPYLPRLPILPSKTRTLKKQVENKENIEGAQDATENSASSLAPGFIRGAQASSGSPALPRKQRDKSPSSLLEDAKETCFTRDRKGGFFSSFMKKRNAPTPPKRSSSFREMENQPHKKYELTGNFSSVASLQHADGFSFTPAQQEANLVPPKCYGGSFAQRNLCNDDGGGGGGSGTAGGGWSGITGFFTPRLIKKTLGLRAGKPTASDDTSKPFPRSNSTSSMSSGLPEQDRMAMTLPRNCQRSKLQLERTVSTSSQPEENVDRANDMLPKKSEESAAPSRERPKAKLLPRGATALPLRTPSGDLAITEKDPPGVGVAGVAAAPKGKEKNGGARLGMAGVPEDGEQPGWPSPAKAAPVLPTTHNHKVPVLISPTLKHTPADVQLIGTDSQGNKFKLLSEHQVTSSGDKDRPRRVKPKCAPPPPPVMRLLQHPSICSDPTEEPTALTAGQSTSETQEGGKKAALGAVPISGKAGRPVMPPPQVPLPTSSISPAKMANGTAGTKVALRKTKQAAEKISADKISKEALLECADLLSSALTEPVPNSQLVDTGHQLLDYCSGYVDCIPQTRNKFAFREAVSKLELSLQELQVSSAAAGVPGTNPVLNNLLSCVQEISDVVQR
Chain of S-adenosylmethionine synthase isoform type-2 (P31153 whole entry, canonical isoform): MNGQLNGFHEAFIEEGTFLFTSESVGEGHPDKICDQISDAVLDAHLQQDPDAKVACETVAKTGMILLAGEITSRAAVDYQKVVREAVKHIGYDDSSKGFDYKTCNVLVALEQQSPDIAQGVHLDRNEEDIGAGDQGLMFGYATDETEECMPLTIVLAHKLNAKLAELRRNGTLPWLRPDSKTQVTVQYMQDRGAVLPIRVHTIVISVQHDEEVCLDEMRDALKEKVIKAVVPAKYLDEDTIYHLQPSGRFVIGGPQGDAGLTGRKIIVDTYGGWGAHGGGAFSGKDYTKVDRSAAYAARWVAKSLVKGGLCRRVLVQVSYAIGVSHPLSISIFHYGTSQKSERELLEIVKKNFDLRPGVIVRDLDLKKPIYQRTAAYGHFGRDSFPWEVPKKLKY
Chain of Bone morphogenetic protein receptor type-1B (O00238 whole entry): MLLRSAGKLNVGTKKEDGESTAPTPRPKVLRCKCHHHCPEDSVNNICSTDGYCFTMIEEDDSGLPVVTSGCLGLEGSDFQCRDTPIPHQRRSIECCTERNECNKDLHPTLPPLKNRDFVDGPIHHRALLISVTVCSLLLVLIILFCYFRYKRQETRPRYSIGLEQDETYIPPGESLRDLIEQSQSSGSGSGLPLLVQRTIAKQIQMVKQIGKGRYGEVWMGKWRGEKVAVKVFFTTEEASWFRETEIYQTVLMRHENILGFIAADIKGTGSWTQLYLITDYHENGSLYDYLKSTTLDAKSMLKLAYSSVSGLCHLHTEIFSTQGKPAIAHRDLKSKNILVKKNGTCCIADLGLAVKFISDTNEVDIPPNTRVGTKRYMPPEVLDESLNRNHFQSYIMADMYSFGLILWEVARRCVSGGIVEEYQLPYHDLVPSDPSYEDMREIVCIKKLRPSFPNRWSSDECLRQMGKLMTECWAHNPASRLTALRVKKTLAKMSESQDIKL

Row | Kd [1] | Kd [2] | Kd [3] | Kd [4] | Kd [5] | Kd [6] | Kd (Ephrin type-A receptor 7) | Kd [7] | Kd [8] | Structure (SMILES)
1 | > 30 µM (inactive) | > 30 µM (inactive) | > 30 µM (inactive) | > 30 µM (inactive) | > 30 µM (inactive) | > 30 µM (inactive) | > 30 µM (inactive) | > 30 µM (inactive) | – | O=c1[nH]c([C@@H]2CCCN2)nc2c1oc1ccc(Cl)cc12
2 | > 30 µM (inactive) | > 30 µM (inactive) | > 30 µM (inactive) | > 30 µM (inactive) | > 30 µM (inactive) | > 30 µM (inactive) | – | > 30 µM (inactive) | – | CCN1CCN(Cc2ccc(Nc3ncc(F)c(-c4cc(F)c5nc(C)n(C(C)C)c5c4)n3)nc2)CC1 [ABEMACICLIB]
3 | > 30 µM (inactive) | – | – | – | > 30 µM (inactive) | – | – | – | > 30 µM (inactive) | CN(C)C/C=C/C(=O)Nc1cc2c(Nc3ccc(F)c(Cl)c3)ncnc2cc1O[C@H]1CCOC1 [AFATINIB]
4 | > 30 µM (inactive) | > 30 µM (inactive) | > 30 µM (inactive) | > 30 µM (inactive) | > 30 µM (inactive) | – | > 30 µM (inactive) | > 30 µM (inactive) | > 30 µM (inactive) | CCN(CCCOc1ccc2c(Nc3cc(CC(=O)Nc4cccc(F)c4)n[nH]3)ncnc2c1)CCOP(=O)(O)O [BARASERTIB]
5 | > 30 µM (inactive) | > 30 µM (inactive) | > 30 µM (inactive) | > 30 µM (inactive) | > 30 µM (inactive) | > 30 µM (inactive) | – | > 30 µM (inactive) | > 30 µM (inactive) | COc1ccc(-c2ccc3ncc4c(c3c2)n(-c2ccc(N3CCNCC3)c(C(F)(F)F)c2)c(=O)n4C)cn1 [BGT-226 FREE BASE]
6 | > 30 µM (inactive) | – | – | – | > 30 µM (inactive) | – | – | – | > 30 µM (inactive) | C[C@@]1(C(=O)Nc2ccc(F)nc2)CCCN1c1nc(Nc2cc(C3CC3)n[nH]2)c2cccn2n1 [BMS-754807]
7 | > 30 µM (inactive) | – | – | – | > 30 µM (inactive) | – | – | – | > 30 µM (inactive) | COc1cc2c(Oc3ccc4[nH]c(C)cc4c3F)ncnc2cc1OCCCN1CCCC1 [CEDIRANIB]
8 | > 30 µM (inactive) | > 30 µM (inactive) | – | > 30 µM (inactive) | > 30 µM (inactive) | – | > 30 µM (inactive) | > 30 µM (inactive) | > 30 µM (inactive) | Cn1c(=O)n(-c2ccc(C(C)(C)C#N)cc2)c2c3cc(-c4cnc5ccccc5c4)ccc3ncc21 [DACTOLISIB]
9 | – | > 30 µM (inactive) | > 30 µM (inactive) | > 30 µM (inactive) | > 30 µM (inactive) | – | – | > 30 µM (inactive) | > 30 µM (inactive) | O=C(NOC[C@H](O)CO)c1ccc(F)c(F)c1Nc1ccc(I)cc1F [MIRDAMETINIB]
10 | > 30 µM (inactive) | – | – | – | > 30 µM (inactive) | – | – | – | > 30 µM (inactive) | CC1(C)CNc2cc(NC(=O)c3cccnc3NCc3ccncc3)ccc21 [MOTESANIB]
11 | > 30 µM (inactive) | > 30 µM (inactive) | > 30 µM (inactive) | > 30 µM (inactive) | > 30 µM (inactive) | 0.038 µM (active) | – | > 30 µM (inactive) | > 30 µM (inactive) | O=C(NC[C@H](O)CO)c1ccncc1Nc1ccc(I)cc1F [PIMASERTIB]
12 | > 30 µM (inactive) | – | – | – | > 30 µM (inactive) | – | – | – | > 30 µM (inactive) | Cn1cnc2c(F)c(Nc3ccc(Br)cc3Cl)c(C(=O)NOCCO)cc21 [SELUMETINIB]
13 | > 30 µM (inactive) | > 30 µM (inactive) | 1.63 µM | > 30 µM (inactive) | > 30 µM (inactive) | – | > 30 µM (inactive) | > 30 µM (inactive) | > 30 µM (inactive) | CC(C)(O)CC(=O)NCCn1ccc2ncnc(Nc3ccc(Oc4cccc(C(F)(F)F)c4)c(Cl)c3)c21 [TAK-285]
14 | – | > 30 µM (inactive) | > 30 µM (inactive) | 4.06 µM (active) | > 30 µM (inactive) | > 30 µM (inactive) | > 30 µM (inactive) | > 30 µM (inactive) | – | Cc1cc(C(=O)Nc2cc(Oc3ccc4nc(NC(=O)C5CC5)cn4n3)ccc2C)n(C)n1 [TAK-593]
15 | > 30 µM (inactive) | – | – | – | > 30 µM (inactive) | – | – | – | – | COc1cc2c(N3CCN(C(=O)Nc4ccc(OC(C)C)cc4)CC3)ncnc2cc1OCCCN1CCCCC1 [TANDUTINIB]

Row | Structure (SMILES) | Kd [1] | Kd [2] | Kd [3] | Kd [4] | Kd [5] | Kd [6] | Kd (Ephrin type-A receptor 7) | Kd [7] | Kd [8]
16 | C=CCn1c(=O)c2cnc(Nc3ccc(N4CCN(C)CC4)cc3)nc2n1-c1cccc(C(C)(C)O)n1 [ADAVOSERTIB] | > 30 µM (inactive) | > 30 µM (inactive) | > 30 µM (inactive) | > 30 µM (inactive) | > 30 µM (inactive) | – | > 30 µM (inactive) | > 30 µM (inactive) | > 30 µM (inactive)
17 | O=S(=O)(c1cccc2cnccc12)N1CCCNCC1 [FASUDIL] | > 30 µM (inactive) | > 30 µM (inactive) | – | > 30 µM (inactive) | > 30 µM (inactive) | – | > 30 µM (inactive) | > 30 µM (inactive) | > 30 µM (inactive)
18 | N#CCNC(=O)c1ccc(-c2ccnc(Nc3ccc(N4CCOCC4)cc3)n2)cc1 [MOMELOTINIB] | > 30 µM (inactive) | > 30 µM (inactive) | > 30 µM (inactive) | > 30 µM (inactive) | > 30 µM (inactive) | – | > 30 µM (inactive) | > 30 µM (inactive) | > 30 µM (inactive)
19 | CN(c1ncccc1CNc1nc(Nc2ccc3c(c2)CC(=O)N3)ncc1C(F)(F)F)S(C)(=O)=O [PF-00562271] | > 30 µM (inactive) | 5.93 µM (active) | > 30 µM (inactive) | > 30 µM (inactive) | > 30 µM (inactive) | – | – | > 30 µM (inactive) | > 30 µM (inactive)
20 | CC(C)CC(=O)Nc1[nH]nc2c1CN(C(=O)C1CCN(C)CC1)C2(C)C [PHA-793887] | > 30 µM (inactive) | > 30 µM (inactive) | > 30 µM (inactive) | > 30 µM (inactive) | > 30 µM (inactive) | > 30 µM (inactive) | – | > 30 µM (inactive) | > 30 µM (inactive)
21 | C=CCN(/C=C1/C(=O)O[C@H](COC)[C@@]2(C)C1=C(O)C(=O)C1=C2[C@H](OC(C)=O)C[C@]2(C)C(=O)CC[C@@H]12)CC=C [SONOLISIB] | > 30 µM (inactive) | > 30 µM (inactive) | > 30 µM (inactive) | > 30 µM (inactive) | > 30 µM (inactive) | > 30 µM (inactive) | – | > 30 µM (inactive) | –
